Reference: publication PMC7265341, “Quantifying CDK inhibitor selectivity in live cells” (Nature Communications, 2020)
Where “and” joins values, the source holds several entries; their conditions need not be identical. Equal entries are not always repeated. Where two headings read alike, the source gives them in different places.

Columns and labels:
CDK14/Cyclin Y = CDK14/Cyclin Y (Homo sapiens, UniProt O94921); assay: NanoBRET live-cell target engagement, CDK14-NanoLuc/Cyclin Y in HEK-293; assay type: binding; details: for inhibition at 10 µM: read-out: CDK14/Y Inhibition at 10µM (%), 10µM
CDK14/Cyclin Y, sequence (O94921 whole entry): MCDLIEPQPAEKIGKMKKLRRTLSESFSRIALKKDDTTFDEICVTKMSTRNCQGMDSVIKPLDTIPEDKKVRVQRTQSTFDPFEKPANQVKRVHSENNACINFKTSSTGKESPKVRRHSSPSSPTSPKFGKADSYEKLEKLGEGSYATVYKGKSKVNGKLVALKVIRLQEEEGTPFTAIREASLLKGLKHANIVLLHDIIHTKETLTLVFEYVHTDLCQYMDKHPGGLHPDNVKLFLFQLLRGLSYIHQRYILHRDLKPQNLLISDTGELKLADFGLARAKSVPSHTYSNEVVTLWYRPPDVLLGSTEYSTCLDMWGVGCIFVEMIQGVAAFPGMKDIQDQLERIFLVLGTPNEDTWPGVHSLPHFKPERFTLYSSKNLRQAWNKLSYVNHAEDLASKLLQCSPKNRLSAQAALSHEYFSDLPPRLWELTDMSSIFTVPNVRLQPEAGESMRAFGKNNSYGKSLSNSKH
CDK14/Cyclin Y, sequence (Q8ND76 whole entry partner): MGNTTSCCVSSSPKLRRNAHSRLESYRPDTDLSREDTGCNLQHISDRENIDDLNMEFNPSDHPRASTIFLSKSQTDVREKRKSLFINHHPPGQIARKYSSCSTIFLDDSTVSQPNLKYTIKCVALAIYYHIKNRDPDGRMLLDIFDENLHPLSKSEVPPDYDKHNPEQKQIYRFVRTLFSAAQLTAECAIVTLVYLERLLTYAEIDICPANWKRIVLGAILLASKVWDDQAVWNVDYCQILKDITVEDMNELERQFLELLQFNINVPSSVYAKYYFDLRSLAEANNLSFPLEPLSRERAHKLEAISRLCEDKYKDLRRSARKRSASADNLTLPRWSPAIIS

CDK2/cyclin A1 = CDK2/cyclin A1 (Homo sapiens, UniProt P24941); assay: NanoBRET target engagement, CDK2-NanoLuc co-expressed with cyclin A1 in HEK-293; assay type: binding; details: probe 5 0.5µM
CDK6 [1] = target: T1, CDK6 (Homo sapiens, UniProt Q00534); assay: Intracellular residence time by cellular washout, CDK6; assay type: binding; details: Panel B;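 also: NanoBRET cellular washout in live cells: compound preincubated 2 h at 37 °C, then removed, energy transfer probe association tracked over time versus DMSO vehicle, rising BRET indicating target release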
T1 sequence (Q00534 whole entry): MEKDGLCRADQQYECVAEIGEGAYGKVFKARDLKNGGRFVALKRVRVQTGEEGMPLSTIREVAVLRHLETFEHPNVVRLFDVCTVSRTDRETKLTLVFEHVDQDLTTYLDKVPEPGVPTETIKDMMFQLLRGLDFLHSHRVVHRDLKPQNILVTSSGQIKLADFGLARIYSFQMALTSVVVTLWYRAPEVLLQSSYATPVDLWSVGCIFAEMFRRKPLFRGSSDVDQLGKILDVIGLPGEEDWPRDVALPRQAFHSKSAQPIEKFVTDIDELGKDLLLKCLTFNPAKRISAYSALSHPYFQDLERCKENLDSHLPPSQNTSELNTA
T1 sequence (P24385 whole entry partner): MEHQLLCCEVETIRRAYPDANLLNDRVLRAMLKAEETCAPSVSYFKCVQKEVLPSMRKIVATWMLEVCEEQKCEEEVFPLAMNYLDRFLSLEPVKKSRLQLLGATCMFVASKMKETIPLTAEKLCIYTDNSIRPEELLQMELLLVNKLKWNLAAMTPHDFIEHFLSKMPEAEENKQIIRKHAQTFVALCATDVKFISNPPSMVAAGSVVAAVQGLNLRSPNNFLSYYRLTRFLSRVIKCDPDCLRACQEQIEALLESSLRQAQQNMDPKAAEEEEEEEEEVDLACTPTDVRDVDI

CDK6 [2] = target: T1, CDK6; assay: Real-time analysis of engagement (kobs, IC50 vs time) in live cells, CDK6; assay type: binding; details: real-time BRET, 25 °C; response to reviewers
Procedure: CDK2/Cyclin E1 complex was measured in the donor NanoBRET channel (using the standard 450 nm bandpass filter on the Glomax Discover plate reader). Ternary complex was measured in the presence […]
the acceptor NanoBRET channel (using the standard 600 nm longpass filter on the Glomax Discover plate reader). Total LgBiT expression level was determined in the presence of a saturating concentration […]
mg/mL digitonin (as a permeabilization agent). […]
respectively, at probe concentrations identical to those described for steady state analysis of target engagement. Cells were pre-equilibrated with energy transfer probe for 40 min prior to addition of […]
intervals at 25 °C (temperature reduced to avoid evaporation of cell culture medium). To quantify […]
vs time. Apparent association rate was also plotted as k obs vs [RGB286638], where kobs was determined using the one phase association equation (Supplementary Equation 2) in graphpad prism.
Y=Y0 + (Plateau-Y0)*(1-e-K*X) (2) where Y = mBRET ratio, X = time, and K = the observed rate constant ( kobs). Both analyses support […]
Generation of endogenously edited CDK-HiBiT cell lines and target engagement analysis at endogenous protein levels. HEK293 cells were edited to express HiBiT fused to the N -terminus of CDK9 or the C-terminus of CDK16, as described previously 3. For CDK9, the sequence of the guide RNA was […]

CDK10/Cyclin L2 = CDK10/Cyclin L2 (Homo sapiens, UniProt Q15131); assay: NanoBRET live-cell target engagement, CDK10-NanoLuc/Cyclin L2 in HEK-293; details: for inhibition at 10 µM: read-out: CDK10/L2 Inhibition at 10µM (%), 10µM
CDK10/Cyclin L2, sequence (Q15131 whole entry): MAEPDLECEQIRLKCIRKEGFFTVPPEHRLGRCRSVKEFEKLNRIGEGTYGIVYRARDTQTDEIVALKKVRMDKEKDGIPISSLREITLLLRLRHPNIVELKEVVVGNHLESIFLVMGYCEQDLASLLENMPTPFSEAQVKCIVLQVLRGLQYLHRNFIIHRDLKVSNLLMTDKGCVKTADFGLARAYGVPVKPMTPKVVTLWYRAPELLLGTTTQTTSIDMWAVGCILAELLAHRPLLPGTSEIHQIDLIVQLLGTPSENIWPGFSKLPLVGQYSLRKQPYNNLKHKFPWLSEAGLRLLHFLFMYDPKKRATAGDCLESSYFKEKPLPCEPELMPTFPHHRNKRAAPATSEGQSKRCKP

## COCCN1CCN(Cc2ccc(-c3n[nH]c4c3C(=O)c3c(NC(=O)NN5CCOCC5)cccc3-4)cc2)CC1 [RGB286638]
CDK14/Cyclin Y; average (± SEM where n=3), read-out: CDK14/Y IC50
  IC50: 31 nM
CDK14/Cyclin Y; independent experiment 1, read-out: CDK14/Y IC50
  IC50: 30 nM
CDK14/Cyclin Y; independent experiment 2, read-out: CDK14/Y IC50
  IC50: 31 nM
CDK14/Cyclin Y; live HEK-293, 2 h, mean ± S.E.M. (n=3) or mean (n=2), read-out: IC50 for CDK/cyclin complexes, CDK14/Y
  IC50: 31 nM
CDK14/Cyclin Y; average of experiments
  inhibition at 10 µM: 95.9%
CDK14/Cyclin Y; independent experiment 1
  inhibition at 10 µM: 94.1%
CDK14/Cyclin Y; independent experiment 2
  inhibition at 10 µM: 97.8%
CDK2/cyclin A1
  increase of CDK2 engagement potency with cyclin E1 compared with cyclin A1 co-expression: ~2 orders of magnitude
CDK6 [1]; Time (Min) 0
  CDK6 occupancy (%) over time after compound washout: 82.1951 and 85.1351 and 80.5402
CDK6 [1]; Time (Min) 2.97013
  CDK6 occupancy (%) over time after compound washout: 79.5935 and 83.3333 and 77.8966
CDK6 [1]; Time (Min) 5.97045
  CDK6 occupancy (%) over time after compound washout: 77.3984 and 80.6306 and 74.3678
CDK6 [1]; Time (Min) 8.97078
  CDK6 occupancy (%) over time after compound washout: 75.7724 and 78.2883 and 76.8161
CDK6 [1]; Time (Min) 11.9714
  CDK6 occupancy (%) over time after compound washout: 73.9024 and 76.5766 and 70.3448
CDK6 [1]; Time (Min) 14.9718
  CDK6 occupancy (%) over time after compound washout: 72.7642 and 74.3243 and 69.1954
CDK6 [1]; Time (Min) 17.9723
  CDK6 occupancy (%) over time after compound washout: 71.5447 and 72.4324 and 67.4713
CDK6 [1]; Time (Min) 20.9723
  CDK6 occupancy (%) over time after compound washout: 70.4878 and 71.2613 and 68.046
CDK6 [1]; Time (Min) 23.9731
  CDK6 occupancy (%) over time after compound washout: 69.0244 and 70.3604 and 68.6207
CDK6 [1]; Time (Min) 26.9737
  CDK6 occupancy (%) over time after compound washout: 68.8618 and 68.5586 and 67.4713
CDK6 [1]; Time (Min) 29.9742
  CDK6 occupancy (%) over time after compound washout: 67.3171 and 67.8378 and 66.8966
CDK6 [1]; Time (Min) 32.9743, listed as RGB-286638
  CDK6 occupancy (%) over time after compound washout: 67.6423 and 66.9369 and 67.1264
CDK6 [1]; Time (Min) 35.9749
  CDK6 occupancy (%) over time after compound washout: 67.2358 and 66.5766 and 66.0919
CDK6 [1]; Time (Min) 38.9753
  CDK6 occupancy (%) over time after compound washout: 66.8293
CDK6 [1]; Time (Min) 236.996
  CDK6 occupancy (%) over time after compound washout: 66.1789 and 64.7748 and 56.7816
CDK6 [1]; Time (Min) 239.996
  CDK6 occupancy (%) over time after compound washout: 65.6911 and 64.3243 and 56.5517
CDK6 [1]; Time (Min) 242.996
  CDK6 occupancy (%) over time after compound washout: 66.4228 and 63.0631 and 56.3218
CDK6 [1]; Time (Min) 245.996
  CDK6 occupancy (%) over time after compound washout: 65.6911 and 63.5135 and 59.5402
CDK6 [1]; Time (Min) 248.996
  CDK6 occupancy (%) over time after compound washout: 65.6911 and 63.0631 and 59.5402
CDK6 [1]; Time (Min) 251.996
  CDK6 occupancy (%) over time after compound washout: 65.7724 and 63.1531 and 61.6092
CDK6 [1]; Time (Min) 254.996
  CDK6 occupancy (%) over time after compound washout: 65.8537 and 64.3243 and 54.7126
CDK6 [1]; Time (Min) 257.996
  CDK6 occupancy (%) over time after compound washout: 64.9594 and 63.3333 and 57.7011
CDK6 [1]; Time (Min) 260.996
  CDK6 occupancy (%) over time after compound washout: 65.1219 and 63.8739 and 51.954
CDK6 [1]; Time (Min) 263.996
  CDK6 occupancy (%) over time after compound washout: 63.9024 and 63.4234 and 57.1264
CDK6 [1]; Time (Min) 266.996, listed as RGB-286638
  CDK6 occupancy (%) over time after compound washout: 65.5285 and 63.1531 and 57.4713
CDK6 [1]; Time (Min) 269.996
  CDK6 occupancy (%) over time after compound washout: 64.7968 and 62.5225 and 59.6552
CDK6 [1]; Time (Min) 272.996
  CDK6 occupancy (%) over time after compound washout: 65.8537 and 62.5225 and 60.3448
CDK6 [1]; Time (Min) 275.996
  CDK6 occupancy (%) over time after compound washout: 64.3902 and 62.0721 and 53.3333
CDK6 [1]; Time (Min) 278.996
  CDK6 occupancy (%) over time after compound washout: 65.2032 and 62.6126 and 63.7931
CDK6 [1]; Time (Min) 281.996
  CDK6 occupancy (%) over time after compound washout: 64.8781 and 62.0721 and 57.7011
CDK6 [1]; Time (Min) 284.996
  CDK6 occupancy (%) over time after compound washout: 65.7724 and 63.3333 and 62.8736
CDK6 [1]; Time (Min) 287.996
  CDK6 occupancy (%) over time after compound washout: 63.5772 and 62.5225 and 61.3793
CDK6 [1]; Time (Min) 290.996
  CDK6 occupancy (%) over time after compound washout: 62.6016 and 62.5225 and 59.8851
CDK6 [1]; Time (Min) 293.996
  CDK6 occupancy (%) over time after compound washout: 64.5529 and 62.8829 and 61.8391
CDK6 [2]
  CDK6 off rate from kobs values: > 300 min
CDK10/Cyclin L2; CDK10/L2 IC50 (nM), average (± SEM where n=3)
  IC50: 790 nM
CDK10/Cyclin L2; CDK10/L2 IC50 (nM), independent experiment 1
  IC50: 790 nM
CDK10/Cyclin L2; CDK10/L2 IC50 (nM), independent experiment 2
  IC50: 780 nM
CDK10/Cyclin L2; IC50 for CDK/cyclin complexes, CDK10/L2, live HEK-293, 2 h, mean ± S.E.M. (n=3) or mean (n=2)
  IC50: 790 nM
CDK10/Cyclin L2; average of experiments
  inhibition at 10 µM: 61.4%
CDK10/Cyclin L2; independent experiment 1
  inhibition at 10 µM: 37.8%
CDK10/Cyclin L2; independent experiment 2
  inhibition at 10 µM: 85.1%
